Results reported in PubChem BioAssay AID200 (DTP/NCI, 2004).
“And” between values parts separate entries of the source, which are not always exact repeats. Equal values may be shown once. Toxic doses and inconclusive results are not listed. How the source made its calls: active means survival T/C of 150% or more; inactive means T/C below 125% in these data.

System: B6C3F1 mice, B16 melanoma ip, median survival T/C
Test: NCI In Vivo Anticancer Drug Screen. Data for tumor model B16 Melanoma (intraperitoneal) in B6C3F1 mice
Details: endpoint: median survival time, higher = longer survival
Procedure, shortened: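 Transplantable tumor in mice; treated vs vehicle control groups; survival or tumor size measured; value = T/C ratio.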

[1] = dose: 3.12 mg/kg/injection, schedule: Q01DX009 (ip), vehicle: saline with Tween-80
[2] = dose: 6.25 mg/kg/injection, schedule: Q01DX009 (ip), vehicle: saline with Tween-80
[3] = dose: 50.0 mg/kg/injection, schedule: Q01DX009 (ip), vehicle: saline
[4] = dose: 12.5 mg/kg/injection, schedule: Q01DX009 (ip), vehicle: saline
[5] = dose: 50.0 mg/kg/injection, schedule: Q01DX009 (ip), vehicle: Klucel (hydroxypropylcellulose) (HPC)
[6] = dose: 25.0 mg/kg/injection, schedule: Q01DX009 (ip), vehicle: saline with Tween-80
[7] = dose: 50.0 mg/kg/injection, schedule: Q01DX009 (ip), vehicle: saline with Tween-80
[8] = dose: 100.0 mg/kg/injection, schedule: Q01DX009 (ip), vehicle: saline with Tween-80
[9] = dose: 200.0 mg/kg/injection, schedule: Q01DX009 (ip), vehicle: saline with Tween-80
[10] = dose: 12.5 mg/kg/injection, schedule: Q01DX009 (ip), vehicle: saline with Tween-80
[11] = dose: 400.0 mg/kg/injection, schedule: Q01DX009 (ip), vehicle: saline with Tween-80
[12] = dose: 25.0 mg/kg/injection, schedule: Q01DX009 (ip), vehicle: Klucel (hydroxypropylcellulose) (HPC)
[13] = dose: 6.25 mg/kg/injection, schedule: Q01DX009 (ip), vehicle: Klucel (hydroxypropylcellulose) (HPC)
[14] = dose: 12.5 mg/kg/injection, schedule: Q01DX009 (ip), vehicle: Klucel (hydroxypropylcellulose) (HPC)
[15] = dose: 100.0 mg/kg/injection, schedule: Q01DX009 (ip), vehicle: Klucel (hydroxypropylcellulose) (HPC)
[16] = dose: 200.0 mg/kg/injection, schedule: Q01DX009 (ip), vehicle: Klucel (hydroxypropylcellulose) (HPC)

Measured: T/C

ClC(Cl)(Cl)Sn1cccn1
inactive: [1] 103 % of control | [2] 87 % of control | [3] 87 % of control

CC12CC3OC(=O)C1COC14OC5(C2C1=O)C(O)(CCC1C4CC2OC24CC=CC(=O)C14C)C(=O)OC35C (stereo unspecified)
inactive: dose: 7.5 mg/kg/injection, schedule: Q01DX009 (ip), vehicle: Klucel (hydroxypropylcellulose) (HPC) 88 % of control | dose: 15.0 mg/kg/injection, schedule: Q01DX009 (ip), vehicle: Klucel (hydroxypropylcellulose) (HPC) 93 % of control | dose: 30.0 mg/kg/injection, schedule: Q01DX009 (ip), vehicle: Klucel (hydroxypropylcellulose) (HPC) 99 % of control

O=c1n(CC2CO2)c(=O)n(CC2CO2)n1CC1CO1 (stereo unspecified)
active: dose: 3.0 mg/kg/injection, schedule: Q01DX009 (ip), vehicle: saline 172 % of control | dose: 6.0 mg/kg/injection, schedule: Q01DX009 (ip), vehicle: saline 212 % of control | dose: 6.25 mg/kg/injection, schedule: Q01DX009 (ip), vehicle: saline 183 % of control | dose: 12.0 mg/kg/injection, schedule: Q01DX009 (ip), vehicle: saline 300 % of control | [4] 198 % of control

N#C[C@H](OC1OC(COC2OC(CO)C(O)C(O)C2O)C(O)C(O)C1O)c1ccccc1 (stereo partly specified)
inactive: dose: 12.5 mg/kg/injection, schedule: Q01DX009 (oral), vehicle: saline 96 % of control | dose: 25.0 mg/kg/injection, schedule: Q01DX009 (ip), vehicle: suspension in saline 98 % of control | dose: 25.0 mg/kg/injection, schedule: Q01DX009 (oral), vehicle: saline 101 % of control | dose: 50.0 mg/kg/injection, schedule: Q01DX009 (ip), vehicle: suspension in saline 98 % of control | dose: 50.0 mg/kg/injection, schedule: Q01DX009 (oral), vehicle: saline 98 % of control (2×) and 102 % of control | dose: 100.0 mg/kg/injection, schedule: Q01DX009 (ip), vehicle: suspension in saline 108 % of control | dose: 200.0 mg/kg/injection, schedule: Q01DX009 (ip), vehicle: suspension in saline 121 % of control | dose: 400.0 mg/kg/injection, schedule: Q01DX009 (ip), vehicle: suspension in saline 103 % of control | dose: 800.0 mg/kg/injection, schedule: Q01DX009 (ip), vehicle: suspension in saline 111 % of control

Cc1cc(NCCCCCCNc2cc(C)nc3cc(N(C)C)ccc23)c2ccc(N(C)C)cc2n1
inactive: dose: 3.13 mg/kg/injection, schedule: Q01DX009 (ip), vehicle: distilled water + Tween-80 + alcohol 100 % of control | dose: 6.25 mg/kg/injection, schedule: Q01DX009 (ip), vehicle: distilled water + Tween-80 + alcohol 112 % of control | dose: 12.5 mg/kg/injection, schedule: Q01DX009 (ip), vehicle: distilled water + Tween-80 + alcohol 112 % of control and 122 % of control

Cc1cccc(Nc2c(N)nc(N)nc2N)c1
inactive: [5] 102 % of control | dose: 75.0 mg/kg/injection, schedule: Q01DX009 (ip), vehicle: Klucel (hydroxypropylcellulose) (HPC) 99 % of control

Nc1nc(N)c(N=O)c(Nc2ccc(Br)cc2)n1
inactive: [6] 114 % of control | [7] 107 % of control | [8] 106 % of control

COc1ccc(C[C@@H]2NC[C@@H](O)[C@@H]2OC(C)=O)cc1
inactive: [6] 124 % of control | dose: 25.0 mg/kg/injection, schedule: Q04DX003 (ip), vehicle: saline with Tween-80 112 % of control | [7] 120 % of control | dose: 50.0 mg/kg/injection, schedule: Q04DX003 (ip), vehicle: saline with Tween-80 110 % of control | dose: 100.0 mg/kg/injection, schedule: Q04DX003 (ip), vehicle: saline with Tween-80 114 % of control | [9] 120 % of control and 121 % of control | dose: 200.0 mg/kg/injection, schedule: Q04DX003 (ip), vehicle: saline with Tween-80 112 % of control

CCN(CC)CCOC(=O)Cc1cccc2c(=O)cc(-c3ccccc3)oc12
inactive: [4] 97 % of control and 103 % of control | dose: 25.0 mg/kg/injection, schedule: Q01DX009 (ip), vehicle: saline 115 % of control and 101 % of control | [3] 109 % of control and 99 % of control

CCOC(=O)C1(c2ccccc2)C(=O)Oc2ccccc21 (stereo unspecified)
inactive: [10] 99 % of control and 100 % of control | [6] 101 % of control and 102 % of control | [7] 95 % of control and 105 % of control | [8] 93 % of control and 95 % of control | [9] 93 % of control and 100 % of control | [11] 91 % of control

C(=C\c1nc2ccccc2[nH]1)/c1nc2ccccc2[nH]1
inactive: [6] 96 % of control | [7] 98 % of control | [9] 87 % of control

Cc1cc(Nc2ccc3c(c2)OCO3)c2cc3c(cc2n1)OCO3
inactive: [12] 105 % of control | [5] 101 % of control

COc1ccc2[nH]c3c(c2c1)CCNC3CC(C)CCC=C(C)C (stereo unspecified)
inactive: [13] 99 % of control | [14] 88 % of control | [12] 97 % of control | [5] 102 % of control | [15] 105 % of control

CC1CCC(n2cnc3c(Cl)ncnc32)O1 (stereo unspecified)
inactive: [14] 97 % of control and 104 % of control | [12] 92 % of control and 104 % of control | [5] 92 % of control and 98 % of control | [15] 97 % of control and 104 % of control | [16] 92 % of control and 93 % of control

Oc1ccc(OCc2ccccc2)cc1
inactive: [14] 107 % of control and 100 % of control | [12] 91 % of control and 102 % of control | [5] 90 % of control and 96 % of control | [15] 100 % of control and 107 % of control | [16] 98 % of control [middle of 4 runs] | dose: 400.0 mg/kg/injection, schedule: Q01DX009 (ip), vehicle: Klucel (hydroxypropylcellulose) (HPC) 102 % of control and 94 % of control

Cc1ccc(C(CCCl)OC(C)C)cc1 (stereo unspecified)
inactive: [8] 97 % of control | [9] 94 % of control | [11] 94 % of control

CCC(=O)Sc1ccccc1C(=O)Nc1ccc(Cl)cc1
inactive: [6] 104 % of control | [7] 117 % of control | [8] 108 % of control | [9] 115 % of control

Nc1nc(N)c2c(Cl)c(CNc3ccc(Cl)c(Cl)c3)ccc2n1
inactive: [1] 121 % of control | [2] 106 % of control | [10] 123 % of control

Nc1ccc(C(=O)O)c(O)c1
inactive: dose: 4.7 mg/kg/injection, schedule: Q01DX009 (ip), vehicle: saline with Tween-80 90 % of control | [13] 95 % of control | dose: 9.3 mg/kg/injection, schedule: Q01DX009 (ip), vehicle: saline with Tween-80 113 % of control and 103 % of control | [14] 101 % of control | dose: 18.7 mg/kg/injection, schedule: Q01DX009 (ip), vehicle: saline with Tween-80 93 % of control and 102 % of control | dose: 37.5 mg/kg/injection, schedule: Q01DX009 (ip), vehicle: saline with Tween-80 109 % of control (2×) and 97 % of control | dose: 75.0 mg/kg/injection, schedule: Q01DX009 (ip), vehicle: saline with Tween-80 99 % of control and 100 % of control and 106 % of control | [15] 92 % of control | dose: 150.0 mg/kg/injection, schedule: Q01DX009 (ip), vehicle: saline with Tween-80 93 % of control | [16] 86 % of control | dose: 300.0 mg/kg/injection, schedule: Q01DX009 (ip), vehicle: saline with Tween-80 97 % of control

CC(C)OC(CCCl)c1ccccc1 (stereo unspecified)
inactive: [8] 94 % of control | [9] 87 % of control | [11] 100 % of control

C1OCN2CSCC12 (stereo unspecified)
inactive: [10] 106 % of control | [6] 94 % of control and 99 % of control | [7] 92 % of control and 99 % of control | [8] 108 % of control and 109 % of control | [9] 109 % of control and 90 % of control

O=C1O/C(=C2\OCc3ccccc32)c2ccccc21
inactive: [6] 115 % of control | [7] 119 % of control | [8] 96 % of control | [9] 102 % of control

Nc1nc(-c2ccccc2)c(Br)c(=O)[nH]1
inactive: dose: 800.0 mg/kg/injection, schedule: Q01DX009 (ip), vehicle: saline with Tween-80 116 % of control
active: [7] 156 % of control and 183 % of control

CSCS(=O)C[C@H](CO)NC(=O)/C=C/c1c(C)[nH]c(=O)[nH]c1=O (stereo partly specified)
inactive: dose: 0.03 mg/kg/injection, schedule: Q01DX009 (ip), vehicle: saline 100 % of control and 104 % of control | dose: 0.06 mg/kg/injection, schedule: Q01DX009 (ip), vehicle: saline 112 % of control and 102 % of control | dose: 0.12 mg/kg/injection, schedule: Q01DX009 (ip), vehicle: saline 98 % of control and 102 % of control | dose: 0.25 mg/kg/injection, schedule: Q01DX009 (ip), vehicle: saline 118 % of control and 98 % of control | dose: 0.5 mg/kg/injection, schedule: Q01DX009 (ip), vehicle: saline 102 % of control | dose: 1.0 mg/kg/injection, schedule: Q01DX009 (ip), vehicle: saline 98 % of control
